Measured values from article PMC10620989, “Going beyond Binary: Rapid Identification of Protein–Protein Interaction Modulators Using a Multifragment Kinetic Target-Guided Synthesis Approach” (Journal of Medicinal Chemistry, 2023).
Read-outs that look alike come from different tables or passages of the source.

Legend:
GST-Bcl-XL [1] = target: T1, GST-Bcl-XL (Homo sapiens, UniProt Q07817); parameters: method as in PMID 21892513; conditions: 50 μM; ref 15b; cited from earlier work
Bcl-XL = Bcl-XL (Homo sapiens, UniProt Q07817); test: Multifragment KTGS incubation with Bcl-XL (9 TA x 9 SZ in one well), LC-MS/MS; conditions: 81 combinations in one well, 5 μM Bcl-XL, phosphate buffer pH 7.4, 8 h
[2] = target: GST-tagged mouse Mcl-1-(152–309) (Mus musculus, UniProt P97287); test: Fluorescence polarization competitive binding assay, GST-Mcl-1 / FITC-Bim-BH3; parameters: selectivity index: reference not given here; conditions: for inhibition at 50 µM: compound at 50 µM
GST-Bcl-XL [3] = target: T1, GST-Bcl-XL; test: Fluorescence polarization assay, GST-Bcl-XL / fluorescein-labeled Bak BH3 peptide; type: binding; conditions: FP, GST-Bcl-XL and fluorescein-labeled Bak BH3 peptide; ND = not detected
Mcl-1 [4] = target: T2, Mcl-1 (Mus musculus, UniProt P97287); test: Binary KTGS incubation (1 TA x 1 SZ) with Mcl-1, LC-MS/MS; conditions: binary incubation mixtures with and without Mcl-1
Mcl-1 [5] = target: T2, Mcl-1; test: Multifragment KTGS screen against Mcl-1 (5 TA x 38 SZ per well), LC-MS/MS; conditions: multifragment KTGS, 190 combinations per well, 10 μM Mcl-1, 20 μM each fragment, pH 7.4, 37 °C, 10 h; peak area with protein / without protein
[6] = FP, GST-Mcl-1 and fluorescein-labeled Bim BH3 peptide, read-out: IC50 on Mcl-1

T1 sequence (Q07817 whole entry, the tested form may be a part): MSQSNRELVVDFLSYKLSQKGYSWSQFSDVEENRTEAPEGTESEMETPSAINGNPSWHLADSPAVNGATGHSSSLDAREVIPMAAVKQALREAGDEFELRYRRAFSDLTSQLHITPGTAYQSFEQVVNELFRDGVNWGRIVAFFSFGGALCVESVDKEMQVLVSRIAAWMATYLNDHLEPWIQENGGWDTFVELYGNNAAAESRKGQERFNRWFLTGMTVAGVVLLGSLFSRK
Chain of Bcl-XL (Q07817 whole entry, species assumed, the tested form may be a part): as the sequence (Q07817 whole entry, the tested form may be a part) above
T2 sequence (P97287 whole entry, the tested form may be a part): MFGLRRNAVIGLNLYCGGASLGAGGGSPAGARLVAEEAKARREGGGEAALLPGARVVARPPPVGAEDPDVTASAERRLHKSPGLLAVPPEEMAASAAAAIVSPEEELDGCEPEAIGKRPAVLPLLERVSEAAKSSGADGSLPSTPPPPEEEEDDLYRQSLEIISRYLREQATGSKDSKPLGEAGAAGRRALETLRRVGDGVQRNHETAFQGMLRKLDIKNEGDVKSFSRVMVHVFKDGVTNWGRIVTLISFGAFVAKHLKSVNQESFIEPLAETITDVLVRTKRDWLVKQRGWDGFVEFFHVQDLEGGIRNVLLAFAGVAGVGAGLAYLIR
Chain of GST-tagged mouse Mcl-1-(152–309) (P97287 152-309): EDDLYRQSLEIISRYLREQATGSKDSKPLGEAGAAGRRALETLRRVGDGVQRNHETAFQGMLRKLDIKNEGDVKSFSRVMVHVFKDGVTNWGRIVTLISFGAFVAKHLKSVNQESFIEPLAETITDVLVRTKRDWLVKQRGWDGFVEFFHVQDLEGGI

| SMILES | inhibition of the Bcl-XL/Bak BH3 interaction (GST-Bcl-XL [1]) | Amplification coefficient (Bcl-XL) | IC50 [2, 6] | inhibition at 50 µM ([2]; FP) | IC50 (GST-Bcl-XL [3]) | Amplification coefficient 1TA x 1SZ (Mcl-1 [4]) | Amplification coefficient 5TA x 38SZ (Mcl-1 [5]) | selectivity index [2] | IC50 ([2]; IC50 on Mcl-1) |
| --- | --- | --- | --- | --- | --- | --- | --- | --- | --- |
| [N-]=[N+]=NS(=O)(=O)c1ccc(CN(CCSc2ccccc2)Cc2ccc(S(=O)(=O)NC(=O)c3cccc4ccccc34)cc2)cc1 [SZ9TA7, O=C(NS(C1=CC=C(CN(CC2=CC=C(S(=O)(N=[N+]=[N-])=O)C=C2)CCSC3=CC=CC=C3)C=C1)(=O)=O)C4=C(C=CC=C5)C5=CC=C4] | 45% | 7.1 | 8.2 µM | 94.1% | 66.3 µM | 6 | 23 | – | – |
| COc1cc(OC)cc(C(=O)NS(=O)(=O)c2ccc(CN(CCSc3ccccc3)Cc3ccc(S(=O)(=O)N=[N+]=[N-])cc3)cc2)c1 [SZ9TA5, O=C(NS(C1=CC=C(CN(CC2=CC=C(S(=O)(N=[N+]=[N-])=O)C=C2)CCSC3=CC=CC=C3)C=C1)(=O)=O)C4=CC(OC)=CC(OC)=C4] | – | 7.6 | 8.1 µM | 99% | – | 4.5 | 8 | – | – |
| O=C(NS(=O)(=O)c1ccc(CN(CCSc2ccccc2)Cc2c(F)cccc2Cl)cc1)c1ccc(OC(F)(F)F)cc1 [SZ15TA8, O=C(NS(C1=CC=C(CN(CCSC2=CC=CC=C2)CC3=C(F)C=CC=C3Cl)C=C1)(=O)=O)C4=CC=C(OC(F)(F)F)C=C4] | – | – | – | 96.5% | 47 µM | 6 | 7 | 6.2 | 7.6 µM |
| O=C(NS(=O)(=O)c1ccc(CN(CCSc2ccccc2)Cc2c(F)cccc2Cl)cc1)c1ccc(-c2ccccn2)cc1 [SZ15TA25, O=C(NS(C1=CC=C(CN(CCSC2=CC=CC=C2)CC3=C(F)C=CC=C3Cl)C=C1)(=O)=O)C4=CC=C(C5=NC=CC=C5)C=C4] | – | – | – | 89% | 54.9 µM | 4.5 | 15 | – | 15.3 µM |
| COc1cc(OC)cc(C(=O)NS(=O)(=O)c2ccc(CN(CCSc3ccccc3)Cc3c(F)cccc3Cl)cc2)c1 [SZ15TA5, O=C(NS(C1=CC=C(CN(CCSC2=CC=CC=C2)CC3=C(F)C=CC=C3Cl)C=C1)(=O)=O)C4=CC(OC)=CC(OC)=C4] | – | – | – | > 99% | 53 µM | 4 | 9 | 4.0 | 13.4 µM |
| CC1(C)CCN(c2ccc(C(=O)NS(=O)(=O)c3ccc4ccc(S(=O)(=O)NCCSc5ccccc5)cc4c3)cc2)CC1 [SZ7TA2] | – | 15.2 | – | – | – | – | – | – | – |
| CC1(C)CCN(c2ccc(C(=O)NS(=O)(=O)c3ccc(NCCSc4ccccc4)c([N+](=O)[O-])c3)cc2)CC1 [SZ4TA2, reference compound] | – | 15.0 | – | – | – | – | – | – | – |
| [N-]=[N+]=NS(=O)(=O)c1ccc(CN(CCSc2ccccc2)Cc2ccc(S(=O)(=O)NC(=O)c3ccccc3)cc2)cc1 [SZ9TA1, O=C(NS(C1=CC=C(CN(CC2=CC=C(S(=O)(N=[N+]=[N-])=O)C=C2)CCSC3=CC=CC=C3)C=C1)(=O)=O)C4=CC=CC=C4] | – | 7.3 | 19.8 µM | 97.3% | 28.8 µM | 4 | 14 | – | – |
| COc1cccc(CN(CCSc2ccccc2)Cc2ccc(S(=O)(=O)NC(=O)c3sc(-c4ccccc4)nc3C)cc2)c1 [SZ17TA3, O=C(NS(C1=CC=C(CN(CC2=CC(OC)=CC=C2)CCSC3=CC=CC=C3)C=C1)(=O)=O)C4=C(C)N=C(C5=CC=CC=C5)S4] | – | – | 8.6 µM | > 99% | 50 µM | 12 | 25 | – | – |
